Experimental data as given in US7453555B2, “Aggregometer with near ultraviolet light source” (Bio/Data Corporation, priority 2005, dated 2008).
Where “and” joins values, the source holds several entries; their conditions need not be identical. Identical values can stand only once.

What was measured:
Format in all cases: cell-based
[1] = test system: platelets (platelet rich plasma); test: PAP-8E normal aggregation test, channel to channel data; design: Average % Agg.: dose or concentration left out as unconfirmed; conditions: for Average Slope: PAP-8E 340 nM LED; for Average % Agg.: PAP-8E 340 nm LED
Experimental: This test method preferably uses a normal platelet rich plasma (PRP) that has 200,000 platelets per cubic mm, with 1 μL volume. At about 6 μm long (oval), the platelets are quite small.
The normal test volume for the PAP-8E using the UV LED's is 500 μL. Using this volume, and the 200,000 platelets per cubic mm, we can assume there are (500×200,000=) 100,000,000 platelets.
During testing the beam of radiation passes through about 25% of the PRP. The task then, is to measure how many and how fast this smaller percentage of the PRP reacts and aggregates. This is done by the measurement of the change in transmission between a platelet poor (PPP) blank and the platelet rich sample.
The channel to channel variation in the PAP-8 E is now less than 11% CV for slope reproducibility and less than 8% CV for % aggregation reproducibility.

platelets [2] = test: Ristocetin dilution test (factor assay), PAP-8E aggregometer with short-wavelength LED; conditions: for 100% Avg. / 100% Slope: 100% level
Experimental: (§1) Factor assay test methods benefit from the higher sensitivity of aggregometers utilizing short-wavelength LEDs. In these methods, reference curves are developed with a standard plasma (90-120% activity of the factor) that is serially diluted (down) to an activity of 1.56% (1:64 dilution). Tests are based on the rate of change in optical density.
(§2) This is a quality control test in which ristocetin/plasma are tested to select the best dilution for a lot of ristocetin reagent. The attenuation of samples was measured at 8.5 mg/ml to 11.0 mg/ml concentrations to determine a slope of each sample (see Table 1, 100% slope, 100% Avg.). The slope is known by those skilled in the art as an indicator of the rate of reaction of the ristocetin reagent. Each of the 8.5 mg/ml to 11.0 mg/ml concentration ristocetin/plasma concentrations were also respectively tested diluted to 50% (see Table 1, 50% slope, 50% Avg.). The results of Table 1 are plotted in FIGS. 4a and 4b. FIG. 4a plots the slopes for each concentration at both 100% and 50% levels. FIG. 4b plots the difference in slopes between the 100% and 50% dilution levels for each concentration. […] Such irregularity makes reliable testing and analysis decision making difficult. […]
The most common use of aggregation in the United States is a test method called the Ristocetin Cofactor Assay. This assay uses standard lyophilized platelets and a plasma that contains a factor. This method uses a standard curve where the standard plasma is diluted to concentrations of 100% to 25%.

platelets [3] = test: Ristocetin dilution test (factor assay), PAP-4 aggregometer with 626 nm LED; conditions: PAP-4 626 nm LED; for 100% Avg. / 100% Slope: 100% level
Text: as §1
Table 1 below and FIGS. 4a and 4b provide test results of a factor assay test: a ristocetin dilution test using an aggregometer with a 626 nm (long-wavelength) LED.
as §2

[4] = Ristocetin 8.5 mg/ml diluted to 50%
[5] = Ristocetin 9.0 mg/ml diluted to 50%
[6] = Ristocetin 9.5 mg/ml diluted to 50%
[7] = Ristocetin 10.0 mg/ml diluted to 50%
[8] = Ristocetin 10.5 mg/ml diluted to 50%
[9] = Ristocetin 11.0 mg/ml diluted to 50%

Nc1ncnc2c1ncn2[C@@H]1O[C@H](COP(=O)(O)OP(=O)(O)O)[C@@H](O)[C@H]1O [ADP]
Average Slope [1]: 41.3
Average % Agg. [1]: 72.6%

CCCCC/C=C\C/C=C\C/C=C\C/C=C\CCCC(=O)O [Arachidonic Acid]
Average Slope [1]: 38.9
Average % Agg. [1]: 73.5%

CNC[C@H](O)c1ccc(O)c(O)c1 [Epinephrine]
Average Slope [1]: 30.5
Average % Agg. [1]: 73.1%

Collagen
Average Slope [1]: 44.0
Average % Agg. [1]: 74.9%

ristocetin
Difference 100 − 50 (platelets [2]; Ristocetin 8.5 mg/ml): 2.5
50% Avg. (platelets [2]; [4]): 23.0
50% Slope (platelets [2]; [4]): 22.0 and 24.0
100% Avg. (platelets [2]; Ristocetin 8.5 mg/ml): 25.5
100% Slope (platelets [2]; Ristocetin 8.5 mg/ml): 23.0 and 28.0
Difference 100 − 50 (platelets [2]; Ristocetin 9.0 mg/ml): 5.0
50% Avg. (platelets [2]; [5]): 26.5
50% Slope (platelets [2]; [5]): 28.0 and 25.0
100% Avg. (platelets [2]; Ristocetin 9.0 mg/ml): 31.5
100% Slope (platelets [2]; Ristocetin 9.0 mg/ml): 32.0 and 31.0
Difference 100 − 50 (platelets [2]; Ristocetin 9.5 mg/ml): 8.0
50% Avg. (platelets [2]; [6]): 23.5
50% Slope (platelets [2]; [6]): 24.0 and 23.0
100% Avg. (platelets [2]; Ristocetin 9.5 mg/ml): 31.5
100% Slope (platelets [2]; Ristocetin 9.5 mg/ml): 31.0 and 32.0
Difference 100 − 50 (platelets [2]; Ristocetin 10.0 mg/ml): 9.0
50% Avg. (platelets [2]; [7]): 21.5
50% Slope (platelets [2]; [7]): 22.0 and 21.0
100% Avg. (platelets [2]; Ristocetin 10.0 mg/ml): 30.5
100% Slope (platelets [2]; Ristocetin 10.0 mg/ml): 31.0 and 30.0
Difference 100 − 50 (platelets [2]; Ristocetin 10.5 mg/ml): 8.0
50% Avg. (platelets [2]; [8]): 23.5
50% Slope (platelets [2]; [8]): 21.0 and 26.0
100% Avg. (platelets [2]; Ristocetin 10.5 mg/ml): 31.5
100% Slope (platelets [2]; Ristocetin 10.5 mg/ml): 30.0 and 33.0
Difference 100 − 50 (platelets [2]; Ristocetin 11.0 mg/ml): 4.0
50% Avg. (platelets [2]; [9]): 27.5
50% Slope (platelets [2]; [9]): 29.0 and 26.0
100% Avg. (platelets [2]; Ristocetin 11.0 mg/ml): 31.5
100% Slope (platelets [2]; Ristocetin 11.0 mg/ml): 30.0 and 33.0
50% Avg. (platelets [3]; [4]): 29.5
50% Slope (platelets [3]; [4]): 29.0 and 30.0
100% Avg. (platelets [3]; Ristocetin 8.5 mg/ml): 42.0
100% Slope (platelets [3]; Ristocetin 8.5 mg/ml): 42.0
Difference 100 − 50 (platelets [3]; Ristocetin 8.5 mg/ml): 12.5
50% Avg. (platelets [3]; [5]): 33.5
50% Slope (platelets [3]; [5]): 32.0 and 35.0
100% Avg. (platelets [3]; Ristocetin 9.0 mg/ml): 46.5
100% Slope (platelets [3]; Ristocetin 9.0 mg/ml): 47.0 and 46.0
Difference 100 − 50 (platelets [3]; Ristocetin 9.0 mg/ml): 13.0
50% Avg. (platelets [3]; [6]): 32.0
50% Slope (platelets [3]; [6]): 33.0 and 31.0
100% Avg. (platelets [3]; Ristocetin 9.5 mg/ml): 40.5
100% Slope (platelets [3]; Ristocetin 9.5 mg/ml): 41.0 and 40.0
Difference 100 − 50 (platelets [3]; Ristocetin 9.5 mg/ml): 8.5
50% Avg. (platelets [3]; [7]): 33.5
50% Slope (platelets [3]; [7]): 33.0 and 34.0
100% Avg. (platelets [3]; Ristocetin 10.0 mg/ml): 43.5
100% Slope (platelets [3]; Ristocetin 10.0 mg/ml): 41.0 and 46.0
Difference 100 − 50 (platelets [3]; Ristocetin 10.0 mg/ml): 10.0
50% Avg. (platelets [3]; [8]): 33.0
50% Slope (platelets [3]; [8]): 31.0 and 35.0
100% Avg. (platelets [3]; Ristocetin 10.5 mg/ml): 39.5
100% Slope (platelets [3]; Ristocetin 10.5 mg/ml): 39.0 and 40.0
Difference 100 − 50 (platelets [3]; Ristocetin 10.5 mg/ml): 6.5
50% Avg. (platelets [3]; [9]): 28.5
50% Slope (platelets [3]; [9]): 28.0 and 29.0
100% Avg. (platelets [3]; Ristocetin 11.0 mg/ml): 36.5
100% Slope (platelets [3]; Ristocetin 11.0 mg/ml): 41.0 and 32.0
Difference 100 − 50 (platelets [3]; Ristocetin 11.0 mg/ml): 8.0
